Measurements reported in patent publication US11464770B2, “Anticancer pharmaceutical composition” (NATIONAL CANCER CENTER, priority 2016, dated 2022).
Like-named read-outs stand apart in the source and are kept apart here.

Tested on: pancreatic cancer cell lines (e.g. MIA PaCa-2)
Experiment: Cell based assay, cell viability (CellTiter-Glo), pancreatic cancer cell lines
Conditions: Homo sapiens
Procedure: Commercially available bladder cancer, prostate cancer, lung cancer, breast cancer, blood cancer, pancreatic cancer, colorectal cancer, brain cancer, neuroblastoma, melanoma, liver cancer, cervical carcinoma, ovarian cancer, renal cancer, and papilloma cell lines were each treated with trypsin-EDTA and cultured, followed by being seeded in each well of a 96 well plate. After 24 hours of treatment at constant temperature, the respective cells were treated with the candidate compound so that a final concentration became 0 to 2 μM. The treated cells were additionally cultured for 72 hours, and cell viability was measured by using an ATP detection method (CellTiter-Glo® Luminescent Cell Viability Assay, Promega).

[1] = pancreatic cancer cell line AsPC-1, 72 hours, read-out: IC50, AsPC-1
[2] = pancreatic cancer cell line BxPC-3, 72 hours, read-out: IC50, BxPC-3
[3] = pancreatic cancer cell line CFPAC-1, 72 hours, read-out: IC50, CFPAC-1
[4] = pancreatic cancer cell line Capan-1, 72 hours, read-out: IC50, Capan-1
[5] = pancreatic cancer cell line Capan-2, 72 hours, read-out: IC50, Capan-2
[6] = pancreatic cancer cell line MIA PaCa-2, 72 hours, read-out: IC50, MIA PaCa-2
[7] = pancreatic cancer cell line PANC-1, 72 hours, read-out: IC50, PANC-1

| Structure (SMILES) | IC50 [1] [µM] | IC50 [2] [µM] | IC50 [3] [µM] | IC50 [4] [µM] | IC50 [5] [µM] | IC50 [6] [µM] | IC50 [7] [µM] |
| --- | --- | --- | --- | --- | --- | --- | --- |
| CSc1c(C(C)=O)c(=O)c2c(Cl)ccc(Br)c2n1C [Compound 5, 3-acetyl-8-bromo-5-chloro-1-methyl-2-(methylthio)quinolin-4(1H)-one] | > 2 | > 2 | > 10 | > 2 | > 2 | > 2 | > 2 |
| CC(=O)c1c([S+]([O-])Cc2cccc(S(F)(F)(F)(F)F)c2)[nH]c2c(Br)ccc(Cl)c2c1=O (stereo not drawn) [Compound 77, 3-acetyl-8-bromo-5-chloro-2-((3-(pentafluoro--sulfanyl)benzyl)sulfinyl)quinolin-4(1H)-one] | > 2 | > 2 | > 10 | > 2 | > 2 | 1.39 | > 2 |
| CC(=O)c1c([S+](C)[O-])n(C(=O)c2ccc(Br)cc2)c2c(Br)ccc(Cl)c2c1=O (stereo not drawn) [Compound 9, 3-acetyl-8-bromo-1-(4-bromobenzoyl)-5-chloro-2-(methylsulfinyl)quinolin-4(1H)-one] | > 2 | > 2 | > 10 | > 2 | > 2 | 1.03 | > 2 |
| CC(=O)c1c([S+](C)[O-])n(C(C)=O)c2c(Br)ccc(Cl)c2c1=O (stereo not drawn) [Compound 19, 1,1′-(8-bromo-5-chloro-2-(methylsulfinyl)-4-oxoquinoline-1,3(4H)-diyl)bis(ethan-1-one)] | > 2 | > 2 | > 10 | > 2 | > 2 | > 2 | > 2 |
| CC(=O)c1c(S(C)(=O)=O)n(S(=O)(=O)c2ccc(C(C)(C)C)cc2)c2c(Br)ccc(Cl)c2c1=O [Compound 41, 3-acetyl-8-bromo-1-((4-(tert-butyl)phenyl)sulfonyl)-5-chloro-2-(methylsulfonyl)quinolin-4(1H)-one] | > 2 | > 2 | > 10 | > 2 | > 2 | > 2 | > 2 |
| CC(=O)c1c([S+]([O-])Cc2ccccc2C#N)[nH]c2c(Br)ccc(Cl)c2c1=O (stereo not drawn) [Compound 58, 2-(((3-acetyl-8-bromo-5-chloro-4-oxo-1,4-dihydroquinolin-2-yl)sulfinyl)methyl)benzonitrile] | > 2 | > 2 | > 10 | > 2 | > 2 | 0.81 | > 2 |
| COc1cccc2[nH]c([S+]([O-])Cc3cc(C)on3)c(C(C)=O)c(=O)c12 (stereo not drawn) [Compound 94, 3-acetyl-5-methoxy-2-(((5-methylisoxazol-3-yl)methyl)sulfinyl)quinolin-4(1H)-one] | > 2 | > 2 | > 10 | > 2 | > 2 | 1.65 | > 2 |
| COc1ccccc1Sc1[nH]c2c(Br)ccc(Cl)c2c(=O)c1C(C)=O [Compound 14, 3-acetyl-8-bromo-5-chloro-2-((2-methoxyphenyl)thio)quinolin-4(1H)-one] | > 2 | > 2 | > 10 | > 2 | > 2 | > 2 | > 2 |
| CC(=O)c1c(SCc2cccc(I)c2)[nH]c2c(Br)ccc(Cl)c2c1=O [Compound 47, 3-acetyl-8-bromo-5-chloro-2-((3-iodobenzyl)thio)quinolin-4(1H)-one] | > 2 | > 2 | > 10 | > 2 | > 2 | > 2 | > 2 |
| CC(=O)c1c([S+]([O-])Cc2ccc(SC(F)(F)F)cc2)[nH]c2c(Cl)ccc(Cl)c2c1=O (stereo not drawn) [Compound 79, 3-acetyl-5,8-dichloro-2-((4-((trifluoromethyl)thio)benzyl)sulfinyl)quinolin-4(1H)-one] | > 2 | > 2 | > 10 | > 2 | > 2 | > 2 | > 2 |
| CC(=O)c1c([S+](C)[O-])[nH]c2c(Br)ccc(Cl)c2c1=O (stereo not drawn) [Compound 1, 3-acetyl-8-bromo-5-chloro-2-(methylsulfinyl)quinolin-4(1H)-one] | > 2 | > 2 | > 10 | > 2 | > 2 | 1.59 | > 2 |
| CC(=O)c1c(S(C)(=O)=O)n(C(=O)c2ccc(Br)cc2)c2c(Br)ccc(Cl)c2c1=O [Compound 21, 3-acetyl-8-bromo-1-(4-bromobenzoyl)-5-chloro-2-(methylsulfonyl)quinolin-4(1H)-one] | > 2 | > 2 | > 10 | > 2 | > 2 | > 2 | > 2 |
| CC(=O)c1c([S+]([O-])Cc2ccc(N)nc2)[nH]c2c(Br)ccc(Cl)c2c1=O (stereo not drawn) [Compound 100, 3-acetyl-2-(((6-aminopyridin-3-yl)methyl)sulfinyl)-8-bromo-5-chloroquinolin-4(1H)-one] | > 2 | > 2 | > 10 | > 2 | > 2 | > 2 | > 2 |
| CC(=O)c1c([S+]([O-])Cc2ccc(C(F)(F)F)o2)[nH]c2c(F)ccc(F)c2c1=O (stereo not drawn) [Compound 81, 3-acetyl-5,8-difluoro-2-(((5-(trifluoromethyl)furan-2-yl)methyl)sulfinyl)quinolin-4(1H)-one] | > 2 | > 2 | > 10 | > 2 | > 2 | > 2 | > 2 |
| CC(=O)c1c([S+]([O-])Cc2ccccc2)nc2c(Br)ccc(Cl)c2c1O (stereo not drawn) [Compound 53, 1-(2-(benzylsulfinyl)-8-bromo-5-chloro-4-hydroxyquinolin-3-yl)ethan-1-one] | > 2 | > 2 | > 10 | > 2 | > 2 | > 2 | > 2 |
| CC(=O)c1c([S+]([O-])c2ccc(Br)cc2)[nH]c2c(Br)ccc(Cl)c2c1=O (stereo not drawn) [Compound 17, 3-acetyl-8-bromo-2-((4-bromophenyl)sulfinyl)-5-chloroquinolin-4(1H)-one] | > 2 | > 2 | > 10 | > 2 | > 2 | > 2 | > 2 |
| CC(=O)c1c([S+]([O-])Cc2ccc(S(F)(F)(F)(F)F)cc2F)[nH]c2c(Br)ccc(Cl)c2c1=O (stereo not drawn) [Compound 69, 3-acetyl-8-bromo-5-chloro-2-((2-fluoro-4-(pentafluoro-16-sulfanyl)benzyl)sulfinyl)quinolin-4(1H)-one] | > 2 | > 2 | > 10 | > 2 | > 2 | 1.37 | > 2 |
| CC(=O)c1c([S+]([O-])Cc2ccc(C(=O)c3ccccc3)cc2)[nH]c2c(Br)ccc(Cl)c2c1=O (stereo not drawn) [Compound 63, 3-acetyl-2-((4-benzoylbenzyl)sulfinyl)-8-bromo-5-chloroquinolin-4(1H)-one] | > 2 | > 2 | > 10 | > 2 | > 2 | > 2 | > 2 |
| CC(=O)c1c(Sc2ccccc2)[nH]c2c(Br)ccc(Cl)c2c1=O [Compound 12, 3-acetyl-8-bromo-5-chloro-2-(phenylthio)quinolin-4(1H)-one] | > 2 | > 2 | > 10 | > 2 | > 2 | > 2 | > 2 |
| Cc1cc(C[S+]([O-])c2[nH]c3c(Cl)ccc(Cl)c3c(=O)c2C(=O)c2ccccc2)no1 (stereo not drawn) [Compound 88, 3-benzoyl-5,8-dichloro-2-(((5-methylisoxazol-3-yl)methyl)sulfinyl)quinolin-4(1H)-one] | > 2 | > 2 | > 10 | > 2 | > 2 | > 2 | > 2 |
| CC(=O)c1c([S+]([O-])CC#N)[nH]c2c(Br)ccc(Cl)c2c1=O (stereo not drawn) [Compound 65, 2-((3-acetyl-8-bromo-5-chloro-4-oxo-1,4-dihydroquinolin-2-yl)sulfinyl)acetonitrile] | > 2 | > 2 | > 10 | > 2 | > 2 | > 2 | > 2 |
